Counter-ions that a name gives are not always drawn.
Tests used:
α1A adrenoceptor = biological target: T1, α1A adrenoceptor (Rattus norvegicus, UniProt P43140); assay: Radioligand binding, [3H] prazosin displacement, rat submaxillary membranes; conditions: for Ki: [3H] prazosin displacement, rat submaxillary membranes, read-out: Affinity (Ki) α1A (Rat Submaxillary); for α1B/α1A: ratio of binding affinities, rat liver / rat submaxillary
T1 construct: from tissue; host or cells: rat submaxillary gland membranes
T1 sequence (P43140 1-466): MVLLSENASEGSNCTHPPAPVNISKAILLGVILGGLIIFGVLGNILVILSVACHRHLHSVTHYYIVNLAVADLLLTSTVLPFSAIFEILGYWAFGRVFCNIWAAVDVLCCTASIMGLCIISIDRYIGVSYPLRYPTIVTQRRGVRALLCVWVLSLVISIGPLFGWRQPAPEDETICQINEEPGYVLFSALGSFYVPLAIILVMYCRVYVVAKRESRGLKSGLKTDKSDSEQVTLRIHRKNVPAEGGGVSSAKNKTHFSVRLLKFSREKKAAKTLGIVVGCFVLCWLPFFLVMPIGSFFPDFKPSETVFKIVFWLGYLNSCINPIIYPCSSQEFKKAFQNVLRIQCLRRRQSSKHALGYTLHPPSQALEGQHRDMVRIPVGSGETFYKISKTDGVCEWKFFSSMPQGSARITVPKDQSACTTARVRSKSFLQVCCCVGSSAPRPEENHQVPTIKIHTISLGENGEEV
Method: (§1) Receptor binding assays were performed using native a-adrenoceptors. The affinity of different compounds for α1A and α1B adrenoceptor subtypes was evaluated by studying their ability to displace specific [^3H] prazosin binding from the membranes of rat submaxillary and liver respectively (Michel et al., Br J Pharmacol, 1989: 98:883). The binding assays were performed according to U+Prichard et al. (Eur J Pharmacol, 1978; 50:87 with minor modifications.
(§2) Submaxillary glands were isolated immediately after sacrifice. The liver was perfused with buffer (Tris HCl 50 mM, NaCl 100 mM, 10 mM EDTA pH 7.4). The tissues were homogenised in 10 volumes of buffer (Tris HCl 50 mM, NaCl 100 mM, 10 mM EDTA pH 7.4). The homogenate was filtered through two layers of wet gauge and filtrate was centrifuged at 500 g for 10 min. The supernatant was subsequently centrifuged at 40,000 g for 45 min. The pellet thus obtained was resuspended in the same volume of assay buffer (Tris HCl 50 mM, 5 mM EDTA pH 7.4) and was stored at −70° C. until the time of assay.
(§3) The membrane homogenates (150-250 μg protein) were incubated in 250 μl of assay buffer (Tris HCl 50 mM, EDTA 5 mM, pH 7.4) at 24-25° C. for 1 hour. Non specific binding was determined in the presence of 300 nM prazosin. The incubation was terminated by vacuum filtration over GF/B fibre filters. The filters were then washed with ice cold 50 mM Tris HCl buffer (pH 7.4). The filtermats were dried and bound radioactivity retained on filters was counted. The IC50 and Kd were estimated by using the non-linear curve-fitting program using G Pad Prism software. The value of inhibition constant Ki was calculated from competitive binding studies by using Cheng & Prusoff equation (Cheng & Prusoff, Biochem Pharmacol, 1973, 22: 3099-3108), Ki=IC50/(1+L/Kd) where L is the concentration of [^3H] prazosin used in the particular experiment (Table 1).

α1B adrenoceptor = biological target: T2, α1B adrenoceptor (Rattus norvegicus, UniProt P15823); assay: Radioligand binding, [3H] prazosin displacement, rat liver membranes; conditions: read-out: Affinity (Ki) α1B (Rat Liver)
T2 construct: from tissue; host or cells: rat liver membranes
T2 sequence (P15823 1-515): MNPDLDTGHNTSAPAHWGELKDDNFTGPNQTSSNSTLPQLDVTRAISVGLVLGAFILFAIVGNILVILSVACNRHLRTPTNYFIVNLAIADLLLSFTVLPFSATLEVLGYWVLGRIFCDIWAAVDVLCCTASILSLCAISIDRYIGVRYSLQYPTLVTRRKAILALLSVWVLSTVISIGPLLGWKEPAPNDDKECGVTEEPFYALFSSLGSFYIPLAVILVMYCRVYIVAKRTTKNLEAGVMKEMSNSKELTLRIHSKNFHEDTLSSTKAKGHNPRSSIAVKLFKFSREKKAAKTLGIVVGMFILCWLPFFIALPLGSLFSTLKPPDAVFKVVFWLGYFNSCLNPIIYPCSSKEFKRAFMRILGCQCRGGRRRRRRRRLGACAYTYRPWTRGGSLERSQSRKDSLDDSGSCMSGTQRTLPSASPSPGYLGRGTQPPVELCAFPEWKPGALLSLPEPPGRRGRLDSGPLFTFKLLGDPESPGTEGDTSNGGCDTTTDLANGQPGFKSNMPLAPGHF
Method: as §1, §2, §3

| Molecule | Ki (α1A adrenoceptor) | α1B/α1A (α1A adrenoceptor) | Ki (α1B adrenoceptor) |
| --- | --- | --- | --- |
| 1-[4-(2-Ethoxyphenyl)piperazin-1-yl]-3-(2,6-dioxopiperadin-1-yl)ethane hydrochloride [compound 05] | 70 nM | 20 | 1380 nM |
| Cl.O=C1C2CC=CCC2C(=O)N1CC(O)CN1CCN(c2ccccc2O)CC1 (centres unmarked) [Compound No. 14, 2-[3-{4-(2-Hydroxyphenyl)piperazin-1-yl}-2-hydroxypropyl]-3a,4,7,7a-tetrahydro-1H-isoindole-1,3(2H)-dione hydrochloride] | 49 nM | 10 | 504 nM |
| CCOc1ccccc1N1CCN(CCN2C(=O)C3CC=CCC3C2=O)CC1.Cl (centres unmarked) [Compound No. 15, 2-[2-{4-(2-Ethoxyphenyl)piperazin-1-yl}ethyl]-3a,4,7,7a-tetrahydro-1H-isoindole-1,3(2H)-dione hydrochloride] | 35 nM | 10 | 346 nM |
| Cl.O=C1C2CC=CCC2C(=O)N1CCN1CCN(c2ccccc2OCC(F)(F)F)CC1 (centres unmarked) [Compound No. 16, 2-[2-{4-(2-(2,2,2-Trifluoroethoxy)phenyl)piperazin-1-yl}ethyl]-3a,4,7,7a-tetrahydro-1H-isoindole-1,3(2H)-dione hydrochloride] | 19 nM | 14 | 267 nM |
| CCOc1ccccc1N1CCN(CCCN2C(=O)C3CC(O)C(Cl)CC3C2=O)CC1.Cl (centres unmarked) [Compound No. 17, hydrochloride] | 1.6 nM |  | 80 nM |
| O=C1C2CC=CCC2C(=O)N1CCC[N+]1([O-])CCN(c2ccccc2O)CC1 (centres unmarked) [Compound No. 22, 2-[3-{4-(2-Hydroxyphenyl)piperazin-1-yl, 1-N-oxide}propyl]-3a,4,7,7a-tetrahydro-1H-isoindole-1,3(2H)-dione] | 1590 nM | 0.7 | 1090 nM |
| CCOc1ccc(O)cc1N1CCN(CCCN2C(=O)C3CC=CCC3C2=O)CC1 (centres unmarked) [Compound No. 24, 2-[3-{4-(2-Ethoxy-5-hydroxyphenyl)piperazin-1-yl}propyl]-3a,4,7,7a-tetrahydro-1H-isoindole-1,3-(2H)-dione hydrochloride] | 5.9 nM | 84 | 495 nM |
| CC(C)Oc1cccc(O)c1N1CCN(CCCN2C(=O)C3CC=CCC3C2=O)CC1 (centres unmarked) [Compound No. 27, 2-[3-{4-(2-isopropoxy-6-hydroxyphenyl)piperazin-1-yl}propyl]-3a,7,7a-tetrahydro-1H-isoindole-1,3(2H)-dione hydrochloride] | 306 nM | 16 | > 5000 nM |
| CC(C)Oc1c(O)cccc1N1CCN(CCCN2C(=O)C3CC=CCC3C2=O)CC1 (centres unmarked) [Compound No. 35, 2-[3-{4-(2-Isopropoxy-3-hydroxyphenyl)piperazin-1-yllpropyl]-3a,4,7,7a-tetrahydro-1H-isoindole-1,3(2H)-dione hydrochloride] | 38 nM | 15 | 582 nM |
| CC(C)Oc1ccc(O)cc1N1CCN(CCCN2C(=O)CCCC2=O)CC1 [Compound No. 36, 1-[4-(2-Isopropoxy-5-hydroxyphenyl)piperazin-1-yl]-3-(2,6-dioxopiperdin-1-yl)piperazin-1-yl]-3-(2,6-dioxopiperidin-1-yl)propane hydrochloride] | 11 nM | 52 | 571 nM |
| CC(C)Oc1cccc(O)c1N1CCN(CCCN2C(=O)CCCC2=O)CC1 [Compound No. 37, 1-[4-(2-Isopropoxy-6-hydroxyphenyl)piperazin-1-yl]-3-(2,6-dioxopiperdin-1-yl)propane hydrochloride] | 462 nM | >2 | > 1000 nM |
| CC(C)Oc1c(O)cccc1N1CCN(CCCN2C(=O)CCCC2=O)CC1.Cl [Compound No. 38, 1-[4-(2-Isopropoxy-3-hydroxyphenyl)piperazin-1-yl]-3-(2,6-dioxopiperidin-1-yl)propane hydrochloride] | 141 nM | 5 | 760 nM |
| Cl.O=C1CCCC(=O)N1CC(O)CN1CCN(c2ccccc2OCC(F)(F)F)CC1 (centres unmarked) [Compound No. 39, 1-[4-{2-(2,2,2-Trifluoroethoxy)phenyl)piperazin-1-yl]-2-hydroxy-3-(2,6-dioxopiperidin-1-yl)propane hydrochloride] | 6.9 nM | 200 | 1380 nM |
| CC(C)Oc1ccccc1NCCNCCCN1C(=O)[C@H]2CC=CC[C@H]2C1=O [Compound No. 42, 2-[N-{N′-(2-Isopropoxyphenyl)aminoethyl}aminopropyl]-3a,4,7,7a-tetrahydro-1H-isoindole-1,3(2H)-dione hydrochloride] | 19 nM | 41 | 781 nM |
| Cl.O=C1CCCC(=O)N1CC(O)CN1CCN(c2ccccc2O)CC1 (centres unmarked) [Compound No. 44, 1-[4-(2-hydroxyphenyl)piperazin-1-yl]-2-hydroxy-3-(2,6-dioxopiperidin-1-yl]propane hydrochloride] | 594 nM | 3 | 1740 nM |
| O=C1C2CC=CCC2C(=O)N1CCCN1CCN(c2ccccc2-c2ccccc2)CC1 (centres unmarked) [Compound No. 45, 2-[3-{4-(2-Biphenyl)piperazin-1-yl}propyl]-3a,4,7,7a-tetrahydro-1H-isoindole-1,3(2H)-dione hydrochloride] | 8.6 nM | 14 | 120 nM |
| CC(=O)N(CCCN1C(=O)C2CC=CCC2C1=O)CCNc1ccccc1OC(C)C.Cl (centres unmarked) [Compound No. 46, 2-[N-{N′-(2-Isopropoxyphenyl)aminoethyl}acetylaminopropyl]-3a,4,7,7a-tetrahydro-1H-isoindole-1,3(2H)-dione hydrochloride] | 379 nM | >3 | > 1000 nM |
| CC(=O)N(CCNCCCN1C(=O)C2CC=CCC2C1=O)c1ccccc1OC(C)C.Cl (centres unmarked) [Compound No. 47, 2-[N-{N′-(2-Isopropoxyphenyl)acetylaminoethyl}aminopropyl]-3a,4,7,7a-tetrahydro-1H-isoindole-1,3(2H)-dione hydrochloride] | 299 nM | >3 | > 1000 nM |
| CC(C)Oc1ccccc1NCCN(CCO)CCCN1C(=O)[C@H]2CC=CC[C@H]2C1=O [Compound No. 48, 2-[N-[{N′-(2-Isopropoxyphenyl)aminoethyl}hydroxyethyl]aminopropyl]-3a,4,7,7a-tetrahydro-1H-isoindole-1,3(2H)-dione hydrochloride] | 91 nM | >11 | > 1000 nM |
| CC(C)Oc1ccccc1N1CCN(C(=O)CCN2C(=O)CCCC2=O)CC1.Cl [Compound No. 49, 1-[4(2-Isopropoxyphenyl)piperazin-1-yl]-1-oxo-3-(2,6-dioxopiperidin-1-yl)propane hydrochloride] | > 1000 nM | 1 | > 1000 nM |
| CC(C)Oc1ccccc1NCCN(CC=O)CCCN1C(=O)C2CC=CCC2C1=O (centres unmarked) [Compound No. 50, 2-[N-{N′-(2-Isopropoxyphenyl)aminoethyl}acetaldehyde-aminopropyl]-3a,4,7,7a-tetrahydro-1H-isoindole-1,3(2H)-dione] | 47 nM | >21 | > 1000 nM |
| CC(C)Oc1ccccc1N(CCO)CCN(CCO)CCCN1C(=O)C2CC=CCC2C1=O (centres unmarked) [Compound No. 51] | 662 nM | >23 | > 15000 nM |
